Results on twelve compounds are retold here after US20020106348A1, “Cancer therapeutics involving the administration of 2-methoxyestradiol and an agent that increases intracellular superoxide anion” (priority 2000, published 2002).

The subject of one data set is CuZnSOD. The data set is described as follows: Inhibition of CuZnSOD by estrogen derivatives. In kind it is biochemical. Particulars: FIG. 20.
A further data set deals with HL-60. Briefly: Apoptosis / nucleosomal DNA fragmentation in HL-60 cells. It is filed as cell-based, human. Particulars: for DNA fragmentation (apoptosis) in HL-60 cells: estrogen derivatives, FIG. 20; for effect on 2-ME-induced apoptosis: HL-60, 1 μM 2-ME plus antioxidant.
For data set [1] the following is noted: cited from earlier work; for elimination half-life: intravenous.
Data set [2] relates to CLL cells. Particulars: for protection from toxic effect of 2-ME: antioxidant added to 2-ME-treated CLL cells.
The subject of data set [3] is CLL cells. Briefly: Cellular O2^- by hydroethidine flow cytometry, CLL cells. In kind it is cell-based, human. Particulars: addition of NAC to 2-ME-treated CLL cells. On the technique in general: A flow cytometer gives signals particle by particle.
Method: The method using hydroethidine to detect O2^− in tissue sections was adapted for quantitation of intracellular O2^− by flow cytometry analysis. This assay is based on the unique chemical properties of hydroethidine, a weak blue fluorescent dye which is selectively converted by O2^− to ethidium with a bright red fluorescence. The control and drug-treated cells (1.5×10^6/sample) were incubated with hydroethidine (20 ng/ml) for 60 min, washed twice with 3 ml PBS, resuspended in 2 ml PBS, and then analyzed within 1 h by flow cytometry, using the red laser channel.
The subject of data set [4] is leukemia cells from a CML (chronic myelogenous leukemia) patient in relapsed blast crisis. The data set is described as follows: Induction of apoptosis in primary leukemia cells from a CML patient. Particulars: in vitro. It is filed as cell-based, human.
Data set [5] deals with NADH:ubiquinone oxidoreductase; phorbol ester-induced ornithine decarboxylase (ODC). Particulars: Fang et al, 1998; read-out: IC50 values, NADH:ubiquinone oxidoreductase inhibition / blocking ODC induction; cited from earlier work.
A further data set deals with HL-60 cells. Briefly: Cellular O2^- by flow cytometry, HL-60 cells. In kind it is cell-based, human. Particulars: 0.25 μM.
A further data set deals with c-myc protein. The data set is described as follows: c-myc protein expression in B CLL cells. Particulars: Rituxan alone. It is filed as cell-based, human.

Structures can show the parent of a compound that is named as a salt. Where two headings read alike, the source gives them in different places.

`C[C@]12CC[C@@H]3c4cc(O)c(O)cc4CC[C@H]3[C@@H]1CC[C@@H]2O` [2-hydroxyestradiol]: the “inhibition of SOD activity” value in the data set on CuZnSOD was “substantially inhibited SOD activity”. The “DNA fragmentation (apoptosis) in HL-60 cells” value (shortened to “DNA fragmentation (apoptosis)”) with HL-60 is “induced DNA fragmentation”. As to `COc1cc2c(cc1O)CC[C@@H]1[C@@H]2CC[C@]2(C)C(=O)CC[C@@H]12` [2-methoxyestrone], the “inhibition of SOD activity” value in the data set with CuZnSOD is “substantially inhibited SOD activity”. Besides, the “DNA fragmentation (apoptosis)” value in the data set with HL-60 was “induced DNA fragmentation”.

Regarding `C[C@]12CC[C@@H]3c4ccc(O)cc4CC[C@H]3[C@@H]1CC[C@@H]2O` [17β-estradiol], the “inhibition of SOD activity” value in the data set on CuZnSOD is reported as “minimal activity against SOD”. For the same compound, the “DNA fragmentation (apoptosis)” value in the data set on HL-60 is listed as “little DNA fragmentation”. Turning to `COc1cccc2c1C(=O)c1c(O)c3c(c(O)c1C2=O)C[C@@](O)(C(C)=O)C[C@@H]3O[C@H]1C[C@H](N)[C@H](O)[C@H](C)O1` [Daunorubicin, 5,12-Naphthacenedione, (8S-cis)-8-acetyl-10-[(3-amino-2,3,6-trideoxy-α-L-lyxo-hexanopyranosyl)oxy]-7,8,9,10-tetrahydro-6,8,11-trihydroxy-10-methoxy-, hydrochloride], the “secreted into the bile” value in data set [1] (in vivo) is approximately 40%. Also, the elimination half-life entry in [1] was “about 19 hr”. Turning to `COc1cccc2c1C(=O)c1c(O)c3c(c(O)c1C2=O)C[C@@](O)(C(=O)CO)C[C@@H]3O[C@H]1C[C@H](N)[C@H](O)[C@H](C)O1` [Doxorubicin, 5,12-Naphthacenedione, (8s-cis)-10-[(3-amino-2,3,6-trideoxy-α-L-lyxo-hexopyranosyl)oxy]-7,8,9,10-tetrahydro-6,8,1-trihydroxy-8-(hydroxyacetyl)-1-methoxy-hydrochloride], the elimination half-life result in data set [1] was “about 30 hr”. As to `CC(=O)N[C@@H](CS)C(=O)O` [N-acetylcysteine, reference compound], the “protection from toxic effect of 2-ME” value in the data set on CLL cells [2] is given as “protective effect”; in the data set on CLL cells [2] (listed as NAC), “protected the cells from the toxic effect of 2-ME”. The “cellular O2^− in 2-ME-treated cells” value in the data set on CLL cells [3] was “reduced the accumulation of cellular O2^−”. The “effect on 2-ME-induced apoptosis” value in the data set on HL-60 is 2-ME-induced apoptosis was significantly reduced. In the case of `Nc1c(Br)cc(Br)cc1CN[C@H]1CC[C@H](O)CC1` [ambroxol], the “effect on 2-ME-induced apoptosis” value with HL-60 is recorded as 2-ME-induced apoptosis was significantly reduced.

For the compound `Nc1ccn([C@@H]2O[C@H](CO)[C@@H](O)[C@@H]2O)c(=O)n1` [ara-C, reference compound], the “apoptosis in primary CML cells” value in [4] is given as “resistant”. In the case of `COc1cccc2c1C(=O)c1c(O)c3c(c(O)c1C2=O)C[C@@](O)([C@H](C)O)C[C@@H]3O[C@H]1C[C@H](N)[C@H](O)[C@H](C)O1` [daunorubicinol], in [1], the elimination half-life result is given as “about 27 hr”. Regarding `C=C(C)[C@H]1Cc2c(ccc3c2O[C@@H]2COc4cc(OC)c(OC)cc4[C@@H]2C3=O)O1` [rotenone, reference compound], the IC50 in [5] was 0.8 to 4 nM. The “cellular O2^− content” value with HL-60 cells is “increase of cellular O2^−”. As to “Rituxan: antibody specific for CD20 antigen on B lymphocyte”, the c-myc protein expression result in the data set with c-myc protein was “increased expression of c-myc protein”. In the data set with CLL cells [2] (Rituxan alone, various concentrations), the “killing of CLL cells” value is reported as “did not result in any significant killing”. Also, in the data set with CLL cells [2] (cells sensitive or resistant to 2-ME), the “enhancement of 2-ME activity” value is “did not significantly enhance the activity of 2-ME”. Turning to Sodium Arsenate [reference compound], the “sensitivity to single agent” value in the data set on CLL cells [2] (2-ME-resistant CLL cells) is on record as “insensitive to either drug alone”; in the data set with CLL cells [2] (CLL cells of the two sensitive patients), “relatively sensitive”.
